Measured values: patent publication US7041677B2, “Use of monochloroflosequinan in the treatment of sexual dysfunction” (R.T. Alamo Ventures I, LLC, priority 2002, dated 2006)
“And” between values parts separate entries of the source, which are not always exact repeats. Equal entries are not always repeated. Marks after values point to notes of the source that are not given here.

Tested on: male Cynomolgus monkeys (Macaca fascicularis)
Assay: Erection monitoring after single intracavernosal dose
Format: in vivo
Set-up: key to Onset Score / Duration Score: 0: no response; erection but transient—less than 1 minute; 2: erection lasting at least 1 minute but less than 5 minutes; 3: erection lasting at least 5 minutes but less than 7 minutes; 4: erection lasting longer than 7 minutes
Conditions: for Onset of Erection: minutes post administration; for Erection Score: Erection Score=2D+O; for Erection Index: Erection Score/n, n=number of animals (4 monkeys)
Protocol: In this example, various halogenated derivatives of flosequinan were evaluated for their ability to induce penile erections. A single intracavernosal dose (of a given halogenated derivative of flosequinan) was administered to male Cynomolgus monkeys (Macaca fascicularis). The Cynomolgus monkey was selected because it is an appropriate established non-rodent species to be used as an erectile dysfunction model. Before the application of the test substances the possible erectile effect of dimethylsulfoxide 25% (DMSO) at a dose volume of 0.15 ml was assessed. (Concentrations of test compounds of less than 10 mg/ml were administered in 25% DMSO. Concentrations of 10 mg/ml or greater were administered in 100% DMSO). An initial dose level of 0.625 mg/kg of the test substance and the derivatives were used. If an erectile effect of the initial dose level was observed 1.25 mg/kg and finally 2.5 mg/kg of each test substance was used. Between each dose level and change of test substance there was a wash out phase of three days [except on Days 1 to 4 (Monochloroflosequinan Racemate) and days 40 to 43 (Monofluoroflosequinan) of the study where there was a wash out phase of only two days between treatments]. Dose volume: A dose volume of 0.15 ml per animal was used. The test substances were prepared according to the following scheme. For each test substance 10 mg was diluted in 1 ml of DMSO. After the test substance was completely dissolved the solution was diluted stepwise 1:2 with double distilled water to the required dose level. The test substance was formulated on the day of the dosing and stored at room temperature. No stability test was required when the test substances were formulated on the day of dosing. Remaining test substances were stored at approximately -80° C. Sufficient purpose-bred naive Cynomolgus monkeys (Macaca fascicularis) were obtained from a recognized supplier in order to provide 4 healthy male animals. At the start of study the animals were in the weight range of 4 to 7 kg and approximately 4 to 6 years old. The animals were housed in a climate controlled room to provide a minimum of 10 air changes per hour. Routinely the temperature and relative humidity ranges were between 19-25° C. and 30-70% respectively. Artificial lighting was controlled automatically to give a cycle of 12 hours light and 12 hours dark. The animals were housed singly in stainless steel cages (dimensions: 600 mm×600 mm×800 mm; E. Becker & Co. GmbH, 44579 Castrop-Rauxel, Germany). Each animal was offered twice daily between 50 to 70 g of a commercial pellet diet for primates (Ssniff P10, Ssniff Spezialdiäten GmbH, Ferdinand-Gabriel-Weg 16, 59494 Soest, Germany). Every three months diet was analyzed for specific contaminants. Tap water was provided ad libtum via an automatic watering system or bottles, except during urine collection. The water was periodically analyzed for specific contaminants found to be present in the diet or water at levels that might interfere with achieving the objective of the study. Clinical Observations: In addition to the initial pharmacological effect (penile erection) monitoring, all animals were observed twice daily for signs of ill health or overt toxicity. An individual record was maintained of the clinical condition of each animal. Post-dosing observations were performed at the discretion of the Study Director. All animals were examined at the beginning and the end of the working hours. […] Body weights were recorded once before dosing. Food consumption was not recorded. For proof of erection capability the animals were checked once pre-dose with electrostimulation using a rectal probe under sedation with […]. […] The onset post drug administration and duration of erection were recorded. Table 5 (below) provides an “Erection Score” and “Erection Index” for the same selected halogenated flosequinan derivatives presented in Table 5. […]

[1] = 2.5 mg/ml intracavernosal, monkey 11539M
[2] = 2.5 mg/ml intracavernosal, monkey 11543M
[3] = 2.5 mg/ml intracavernosal, monkey 11584M
[4] = 2.5 mg/ml intracavernosal, monkey 11590M
[5] = 10 mg/ml intracavernosal, monkey 11539M
[6] = 10 mg/ml intracavernosal, monkey 11543M
[7] = 10 mg/ml intracavernosal, monkey 11584M
[8] = 10 mg/ml intracavernosal, monkey 11590M

Cn1cc([S@+]([O-])CCl)c(=O)c2ccc(F)cc21 (single isomer, unassigned) [(+)-enantiomer of monochloroflosequinan]
Duration Erection [1]: <1 min | Duration Score [1]: 1 (erection but transient—less than 1 minute) | Onset Score [1]: 1 (erection onset longer than 10 minutes) | Onset of Erection [1]: 107* min | Erection Score [1]: 3 | Duration Erection [2]: <1 min | Duration Score [2]: 1 (erection but transient—less than 1 minute) | Onset Score [2]: 1* (erection onset longer than 10 minutes) | Onset of Erection (2.5 mg/ml intracavernosal, monkey 11543M, listed as MONOCHLOROFLOSEQUINAN S(+)): 34* min and 38* min and 39^a* ejaculation min | Erection Score [2]: 3 | Duration Score [3]: 1 (erection but transient—less than 1 minute) | Onset Score [3]: 1 (erection onset longer than 10 minutes) | Erection Score [3]: 3 | Duration Score [4]: 3 (erection lasting at least 5 minutes but less than 7 minutes) | Onset Score [4]: 4 (erection onset 1 minute or less (immediate)) | Erection Score [4]: 10 | Erection Index (2.5 mg/ml intracavernosal): 4.8 | Duration Score [5]: 0 | Onset Score [5]: 4* (erection onset 1 minute or less (immediate)) | Erection Score [5]: 4 | Duration Score [6]: 0 | Onset Score [6]: 0 | Erection Score [6]: 0 | Duration Erection [7]: <1 min | Duration Score [7]: 1 (erection but transient—less than 1 minute) | Onset Score [7]: 3* (erection onset between 2 and 4 minutes) | Erection Score [7]: 5 | Duration Erection [8]: 8 min | Duration Score [8]: 4 (erection lasting longer than 7 minutes) | Onset Score [8]: 4 (erection onset 1 minute or less (immediate)) | Onset of Erection [8]: immediate <1 min | Erection Score [8]: 12 | Erection Index (10 mg/ml intracavernosal): 5.3 | inducing penile erections (Cynomolgus monkeys, intracavernosal, summary of Tables 4 & 5): especially effective
